Results: patent US11753363B2, “13-oxidized ingenol derivative and use thereof” (Tianjin Pharmaceutical Da Ren Tang Group Corp., Ltd. …, priority 2017, dated 2023)
In brackets after ≈: the same amount, converted by molar mass.

Tests used:
Assay type in all cases: cell-based
[1] = test system: BGC-823 (human gastric cancer cells); assay: Inhibition of proliferation of tumor cell lines (MTT), BGC-823; conditions: BGC-823, 72 h; for IC50: Homo sapiens, read-out: IC50 value of compound for inhibition of proliferation of tumor cell lines, BGC-823
Procedure: (§1) In this example, the inhibitory activity of compounds of the present invention against proliferation of seven human tumor cell lines and mouse B16-F10 melanoma cells was tested in vitro, and the IC50 value (50% inhibitory concentration) of compounds against each tumor cell line was calculated.
(§2) The seven human tumor cell lines are: MCF-7 (human breast cancer cells), LOVO (human colon cancer cells), A549 (human lung cancer cells), BGC-823 (human gastric cancer cells), SMMC-7721 (human liver cancer cells), K562 (human leukemia cells), and HeLa (human cervical cancer cells).
(§3) IC50 values of the compounds for A549, BGC-823, LOVO, MCF-7, SMMC-7721, HeLa, and B16-F10 cells were tested. The above cells were routinely cultured in 1640 nutrient solution containing 10% calf serum, with passage for 1 time every 2 days, and the cells in logarithmic growth phase were taken for experiments. After the A549, BGC-823, LOVO, MCF-7, SMMC-7721, HeLa and B16-F10 cells in logarithmic growth phase were subjected to 0.25% trypsin digestion, they were blown into a single cell suspension, and then the cell concentration was adjusted to about 1×10^5·mL^−1 using RPMI 1640 solution containing 10% calf serum. The cells were seeded in a 96-well culture plate at 100 μL per well, and cultured for 24 hours until the cells were attached. K562 cells were taken and centrifuged and diluted into 2×10^5·mL^−1 single cell suspension with RPMI 1640 solution containing 10% calf serum, and inoculated into a 96-well culture plate at 100 μL per well.
(§4) 100 μL of sample solution with different concentrations to be tested were added to the above 96-well plate, each concentration was added to 4 wells in parallel, and the cell control group was added with an equal volume of RPMI 1640 medium containing 10% calf serum to make a reaction volume of 200 μL. After incubating in an incubator at 37° C., 5% CO2 for 72 h, 10 μL of 5 mg·mL^−1 MTT solution was added to each well, and incubated at 37° C. for 4 h. The supernatant was carefully aspirated, 180 μL of DMSO was added to each well followed by shaking, and the absorbance (OD) value was measured at 570 nm on the microplate reader. The inhibition rate was calculated, and regression equation was established with the logarithmic value of the sample concentration and the inhibition rate (IR) to find the IC50 value of the compound against the cells to be tested. IR (%)=(1−OD value of the experimental group/OD value of the cell control group)×100%

[2] = test system: LOVO (human colon cancer cells); assay: Inhibition of proliferation of tumor cell lines (MTT), LOVO; conditions: 72 h; for IC50: Homo sapiens, read-out: IC50 value of compound for inhibition of proliferation of tumor cell lines, LOVO
Procedure: as §1, §2, §3, §4

[3] = test system: neutrophilic granulocytes; assay: Neutrophil oxidative burst (luminol chemiluminescence); conditions: rat neutrophils, (Csample−Ccontrol)/Ccontrol×100%
Procedure: This example investigated the effect of compound on neutrophil oxidative burst and calculated the efficiency of each compound in stimulating neutrophil oxidative burst.
Blood was taken from the abdominal aorta of rat. The neutrophilic granulocytes were isolated by the operational procedure of the rat peripheral blood neutrophil isolation kit. The neutrophilic granulocytes were re-suspended by Hanks, and were plated in a 96-well white plate at 1×10^5 cells/well, 80 μL/well; 1 mM of Luminol was added at 10 μL/well; 10 μL of the sample was added to each well, and the degree of oxidative burst was evaluated by chemiluminescence. Calculation formula of Efficiency: Efficiency (%)=(Csample−Ccontrol)/Ccontrol×100%

[4] = test system: K562 (human leukemia cells); assay: Inhibition of proliferation of tumor cell lines (MTT), K562; conditions: K562, 72 h; for IC50: Homo sapiens, read-out: IC50 value of compound for inhibition of proliferation of tumor cell lines, K562
Procedure: as §1, §2, §3, §4

[5] = test system: MCF-7 (human breast cancer cells); assay: Inhibition of proliferation of tumor cell lines (MTT), MCF-7; conditions: for IC50: Homo sapiens, MCF7, MCF-7, 72 h, read-out: IC50 value of compound for inhibition of proliferation of tumor cell lines, MCF-7
Procedure: as §1, §2, §3, §4

[6] = test system: HeLa (human cervical cancer cells); assay: Inhibition of proliferation of tumor cell lines (MTT), HeLa; conditions: 72 h; for IC50: Homo sapiens, read-out: IC50 value of compound for inhibition of proliferation of tumor cell lines, HeLA
Procedure: as §1, §2, §3, §4

[7] = test system: A549 (human lung cancer cells); assay: Inhibition of proliferation of tumor cell lines (MTT), A549; conditions: A549, 72 h; for IC50: Homo sapiens, read-out: IC50 value of compound for inhibition of proliferation of tumor cell lines, A549
Procedure: as §1, §2, §3, §4

[8] = test system: SMMC-7721 (human liver cancer cells); assay: Inhibition of proliferation of tumor cell lines (MTT), SMMC-7721; conditions: SMMC-7721, 72 h; for IC50: Homo sapiens, read-out: IC50 value of compound for inhibition of proliferation of tumor cell lines, SMMC-7721
Procedure: as §1, §2, §3, §4

[9] = test system: mouse B16-F10 melanoma cells; assay: Inhibition of proliferation of tumor cell lines (MTT), B16-F10; conditions: B16-F10, 72 h; for IC50: Mus musculus, read-out: IC50 value of compound for inhibition of proliferation of tumor cell lines, B16-F10
Procedure: as §1, §3, §4

[10] = test system: release of IL-8 by human keratinocytes (HaCaT); assay: Release of IL-8 by human keratinocytes (HaCaT), IL-8 Elisa; conditions: 24 h, (Csample−Ccontrol)/Ccontrol×100%; for activation at 0.1 µg/mL: Homo sapiens, HaCaT, read-out: Efficiency of compound in stimulating the release of IL-8 by HaCaT cells
Procedure: This Example investigated the effect of compound on release of IL-8 by human keratinocytes (HaCaT) and calculated the efficiency of each compound in stimulating the release of IL-8 by human keratinocytes (HaCaT).
Hacat cells were cultured in MEM+10% FBS under the conditions of 37° C., 5% CO2, and when the cells reached 80-95% fusion, they were inoculated into a 96-well culture plate (1×10^4 cells/well) at 100 μL/well, and incubated for 18-24 h. The supernatant was discarded and the cells were incubated for 3-6 h in 1% FBS medium. Different concentrations of the sample solution of compound to be tested were added to each well, and the cell control group was added with an equal volume of 1% FBS medium at 10 μL/well, and incubated for 24 h. The supernatant was taken and tested according to the operation sequence of the IL-8 Elisa kit. Calculation formula of Efficiency: Efficiency (%)=(Csample−Ccontrol)/Ccontrol×100%

[11] = Neutrophil, 3 μg/mL, read-out: Efficiency of compounds in stimulating neutrophil oxidative burst

Row | Structure (SMILES) | IC50 [1] | IC50 [2] | activation at 3 µg/mL [3, 11] | IC50 [4] | IC50 [5] | IC50 [6] | IC50 [7] | IC50 [8] | IC50 [9] | activation at 0.1 µg/mL ([10]; 0.1 μg/mL) | further results
1 | C/C=C(/C)C(=O)OCC1=C[C@@H]2C(=O)[C@]3(C=C(C)[C@H](O)[C@@]3(O)[C@@H]1O)[C@H](C)C[C@]1(OC(=O)CCCCCCCCCCC)[C@H]2C1(C)C [Compound 15b, 20-O-angeloyl-13-O-dodecanoyl-ingenol] | 20.6 µg/mL (≈ 32.8 µM) | 15.2 µg/mL (≈ 24.2 µM) | 360% | 0.001 µg/mL (≈ 0.00159 µM) | 23.3 µg/mL (≈ 37.1 µM) | 10.2 µg/mL (≈ 16.2 µM) | 10 µg/mL (≈ 15.9 µM) | 13.1 µg/mL (≈ 20.8 µM) | 9.09 µg/mL (≈ 14.5 µM) |  | 
2 | CCCCCCCCCCCC(=O)O[C@@]12C[C@@H](C)[C@]34C=C(C)[C@H](O)[C@@]3(O)[C@H](O)C(COC(=O)C(C)C(C)C)=C[C@H](C4=O)[C@@H]1C2(C)C (some centres unmarked) [20-O-(2,3-dimethylbutyryl)-13-O-dodecanoyl-ingenol] | 11 µg/mL (≈ 17.1 µM) | 8.36 µg/mL (≈ 13 µM) | 64.5% | 0.64 µg/mL (≈ 0.992 µM) | 10.1 µg/mL (≈ 15.7 µM) | 14.5 µg/mL (≈ 22.5 µM) | 8.89 µg/mL (≈ 13.8 µM) | 10.7 µg/mL (≈ 16.6 µM) | 16.6 µg/mL (≈ 25.7 µM) |  | 
3 | C/C=C(/C)C(=O)O[C@H]1C(C)=C[C@]23C(=O)[C@@H](C=C(CO)[C@@H](O)[C@]12O)[C@H]1[C@@H](C[C@H]3C)C1(C)C [3-O-angeloyl-ingenol, reference compound] |  |  |  |  |  |  |  |  |  |  | IC50 value of compound for inhibition of proliferation of tumor cell lines, BGC-823 [1]: 43.5 µg/mL; Efficiency of compound in stimulating the release of IL-8 by HaCaT cells ([10]; 0.1 μg/mL): 31.9%; Efficiency of compound in stimulating the release of IL-8 by HaCaT cells ([10]; 1 μg/mL): 41.4%; IC50 value of compound for inhibition of proliferation of tumor cell lines, LOVO [2]: 33.4 µg/mL; Efficiency of compounds in stimulating neutrophil oxidative burst ([3]; 3 μg/mL): 51.4%; IC50 value of compound for inhibition of proliferation of tumor cell lines, K562 [4]: 0.0076 µg/mL; IC50 value of compound for inhibition of proliferation of tumor cell lines, MCF-7 ([5]; MCF-7, 72 h): 57.4 µg/mL; IC50 value of compound for inhibition of proliferation of tumor cell lines, HeLA [6]: 49.4 µg/mL; IC50 value of compound for inhibition of proliferation of tumor cell lines, A549 [7]: 31.2 µg/mL; IC50 value of compound for inhibition of proliferation of tumor cell lines, SMMC-7721 [8]: 28.2 µg/mL; IC50 value of compound for inhibition of proliferation of tumor cell lines, B16-F10 [9]: 38.1 µg/mL
4 | CCCCCCCC(=O)O[C@@]12C[C@@H](C)[C@]34C=C(C)[C@H](O)[C@@]3(O)[C@H](O)C(CO)=C[C@H](C4=O)[C@@H]1C2(C)C [Compound 7, 13-O-n-octanoyl-ingenol] | 25.1 µg/mL (≈ 51.2 µM) | 24.1 µg/mL (≈ 49.1 µM) | 45% | 1.72 µg/mL (≈ 3.51 µM) | 16.2 µg/mL (≈ 33 µM) | 29.3 µg/mL (≈ 59.7 µM) | 29.7 µg/mL (≈ 60.5 µM) | 16 µg/mL (≈ 32.6 µM) | 38.4 µg/mL (≈ 78.3 µM) |  | 
5 | CCCCCCCCCCCC(=O)O[C@@]12C[C@@H](C)[C@]34C=C(C)[C@H](O)[C@@]3(O)[C@H](O)C(COC(=O)CCC)=C[C@H](C4=O)[C@@H]1C2(C)C [Compound 13, 20-O-n-butanoyl-13-O-dodecanoyl-ingenol] | 12.4 µg/mL (≈ 20.1 µM) | 6.93 µg/mL (≈ 11.2 µM) | 62.4% | 0.07 µg/mL (≈ 0.113 µM) | 18 µg/mL (≈ 29.2 µM) | 24.2 µg/mL (≈ 39.2 µM) | 17.2 µg/mL (≈ 27.9 µM) | 12.5 µg/mL (≈ 20.3 µM) | 30.5 µg/mL (≈ 49.4 µM) | 30.3% | 
6 | C/C=C(\C)C(=O)O[C@H]1C(C)=C[C@]23C(=O)[C@@H](C=C(CO)[C@@H](O)[C@]12O)[C@@H]1C(C)(C)[C@]1(OC(=O)CCCCCCCCCCC)C[C@H]3C [Compound 20, 3-O-tigloyl-13-O-dodecanoyl-ingenol] | 11 µg/mL (≈ 17.5 µM) | 9.91 µg/mL (≈ 15.8 µM) | 43.8% | 0.81 µg/mL (≈ 1.29 µM) | 6.8 µg/mL (≈ 10.8 µM) | 7.45 µg/mL (≈ 11.8 µM) | 13.1 µg/mL (≈ 20.8 µM) | 18.4 µg/mL (≈ 29.3 µM) | 3.33 µg/mL (≈ 5.3 µM) | 109% | 
7 | CCCCCCCCCCCC(=O)O[C@@]12C[C@@H](C)[C@]34C=C(C)[C@H](OC(=O)CCC)[C@@]3(O)[C@H](O)C(CO)=C[C@H](C4=O)[C@@H]1C2(C)C [Compound 11, 3-O-n-butanoyl-13-O-dodecanoyl-ingenol] | 13.4 µg/mL (≈ 21.7 µM) | 8.82 µg/mL (≈ 14.3 µM) | 33.5% | 0.1 µg/mL (≈ 0.162 µM) | 18.5 µg/mL (≈ 30 µM) | 20.3 µg/mL (≈ 32.9 µM) | 14.3 µg/mL (≈ 23.2 µM) | 19.1 µg/mL (≈ 31 µM) | 26.2 µg/mL (≈ 42.5 µM) |  | 
8 | CCCCCCCCCCCC(=O)O[C@@]12C[C@@H](C)[C@]34C=C(C)[C@H](OC(=O)C(C)C(C)C)[C@@]3(O)[C@H](O)C(CO)=C[C@H](C4=O)[C@@H]1C2(C)C (some centres unmarked) [3-O-(2,3-dimethylbutyryl)-13-O-dodecanoyl-ingenol] | 10.4 µg/mL (≈ 16.1 µM) | 7.6 µg/mL (≈ 11.8 µM) |  | 0.12 µg/mL (≈ 0.186 µM) | 9.05 µg/mL (≈ 14 µM) | 24.3 µg/mL (≈ 37.7 µM) | 11 µg/mL (≈ 17.1 µM) | 14.5 µg/mL (≈ 22.5 µM) | 17.8 µg/mL (≈ 27.6 µM) | 50% | activation at 0.1 µg/mL ([3]; Neutrophil, 0.1 μg/mL, read-out: Efficiency of compounds in stimulating neutrophil oxidative burst): 71.4%
